Laboratory results as given in US11802128B2, “Azetidine and pyrrolidine PARP1 inhibitors and uses thereof” (Xinthera, Inc., priority 2021, dated 2023).
pEC50, pIC50: −log10 of the molar value.

Assays:
[1] = test system: MDA-MB-436 (mutated BRCA1) cells; experiment: Cell growth inhibition assay (CellTiter-Glo cell viability, 7 days); format: cell-based; settings: Homo sapiens, 168 h, MDA-MB-436, 7 days
Source text: (§1) The objective of this study is to evaluate the effect of invention compounds on cell proliferation through the cell viability assay in DLD-1 BRCA2(−/−) and parental isogenic pair and MDA-MB-436 (mutated BRCA1) cell lines. The CellTiter-Glo (CTG) based cell viability assay is designed to determine the number of viable cells in the culture because of compound effect, by quantifying ATP, which indicates the presence of metabolically active cells.
(§2) DLD-1 BRCA2(−/−) and parental isogenic pair were cultured in RPMI 1640 supplemented with 10% fetal bovine serum (FBS), and MDA-MB-436 cells were cultured in DMEM supplemented with 10% FBS. Both are culture at 37° C. with 5% CO2. Invention compounds were distributed to the 384 well plate (Corning, 3764) using Echo acoustic liquid handler to form a 1:3 serially diluted final concentration with top dose of 10 or 30 μM. The cells were seeded into the plate in the density of 50 cells/well (DLD-1 parental), 200 cells/well (DLD-1 BRCA2−/−), or 500 cells/well (MDA-MB-436). After a short spun, the cells were cultured in a well moisturized incubator at 37° C. with 5% CO2 for 7 days without disturbance. The cell viability was measured by CellTiter Glo 2.0 assay kit (Promega, G9243), and growth inhibition rate was calculated and plotted against final compound concentration, and the data were fitted in Xfit to generate IC50.

DLD-1 BRCA2(−/−) cells = experiment: as above; format: cell-based; settings: Homo sapiens, 168 h
Source text: as §1, §2

PARP1 = PARP1 (Homo sapiens (Human), UniProt P09874); experiment: Biochemical fluorescent polarization (FP) assay, displacement of PARPi-FL; format: binding; settings: 20 nM protein, 3 nM PARPi-FL, 4 h at room temperature
Method: (§3) The assay was performed utilizing the following method:
(§4) 100% DMSO was used for the high (with protein) and low (without protein) control samples. 20 nL of compound or DMSO alone was added to individual assay plate wells.
(§5) PARP1 and PARP2 protein were expressed, purified, and diluted in assay buffer containing 50 mM Tris pH 8.0, 0.001% Triton X-100, 10 mM MgCl2, 150 mM NaCl to a final concentration of 20 nM. The PARPi-FL was then added at a final concentration of 3 nM.
(§6) The assay plate is centrifuged at 1000 rpm for 1 min and incubated for 4 h at room temperature.
(§7) The fluorescent polarization is read using an Envision plate reader using the following settings: […]

PARP2 = PARP2 (Homo sapiens (Human), UniProt Q9UGN5); experiment: as above; format: binding; settings: 20 nM protein, 3 nM PARPi-FL, 4 h at room temperature; read-out: IC50 FP PARP2
Method: as §3, §4, §5, §6, §7

Chain of PARP2 (Q9UGN5 whole entry): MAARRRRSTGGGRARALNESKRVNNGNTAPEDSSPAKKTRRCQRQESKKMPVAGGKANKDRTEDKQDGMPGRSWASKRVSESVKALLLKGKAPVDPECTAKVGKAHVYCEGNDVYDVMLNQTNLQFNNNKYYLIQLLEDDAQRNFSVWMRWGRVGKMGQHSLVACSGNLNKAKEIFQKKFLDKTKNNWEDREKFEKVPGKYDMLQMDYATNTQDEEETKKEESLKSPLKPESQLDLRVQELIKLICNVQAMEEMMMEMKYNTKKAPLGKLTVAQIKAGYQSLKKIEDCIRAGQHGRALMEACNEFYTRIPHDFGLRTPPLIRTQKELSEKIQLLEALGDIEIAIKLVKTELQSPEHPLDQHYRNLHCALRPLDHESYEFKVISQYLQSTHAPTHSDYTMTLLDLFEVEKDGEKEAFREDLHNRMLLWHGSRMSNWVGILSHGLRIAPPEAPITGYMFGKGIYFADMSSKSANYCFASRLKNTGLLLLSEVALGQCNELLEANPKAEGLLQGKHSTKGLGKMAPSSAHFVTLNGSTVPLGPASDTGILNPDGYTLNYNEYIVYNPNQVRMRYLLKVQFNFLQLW
Chain of PARP1 (P09874 whole entry): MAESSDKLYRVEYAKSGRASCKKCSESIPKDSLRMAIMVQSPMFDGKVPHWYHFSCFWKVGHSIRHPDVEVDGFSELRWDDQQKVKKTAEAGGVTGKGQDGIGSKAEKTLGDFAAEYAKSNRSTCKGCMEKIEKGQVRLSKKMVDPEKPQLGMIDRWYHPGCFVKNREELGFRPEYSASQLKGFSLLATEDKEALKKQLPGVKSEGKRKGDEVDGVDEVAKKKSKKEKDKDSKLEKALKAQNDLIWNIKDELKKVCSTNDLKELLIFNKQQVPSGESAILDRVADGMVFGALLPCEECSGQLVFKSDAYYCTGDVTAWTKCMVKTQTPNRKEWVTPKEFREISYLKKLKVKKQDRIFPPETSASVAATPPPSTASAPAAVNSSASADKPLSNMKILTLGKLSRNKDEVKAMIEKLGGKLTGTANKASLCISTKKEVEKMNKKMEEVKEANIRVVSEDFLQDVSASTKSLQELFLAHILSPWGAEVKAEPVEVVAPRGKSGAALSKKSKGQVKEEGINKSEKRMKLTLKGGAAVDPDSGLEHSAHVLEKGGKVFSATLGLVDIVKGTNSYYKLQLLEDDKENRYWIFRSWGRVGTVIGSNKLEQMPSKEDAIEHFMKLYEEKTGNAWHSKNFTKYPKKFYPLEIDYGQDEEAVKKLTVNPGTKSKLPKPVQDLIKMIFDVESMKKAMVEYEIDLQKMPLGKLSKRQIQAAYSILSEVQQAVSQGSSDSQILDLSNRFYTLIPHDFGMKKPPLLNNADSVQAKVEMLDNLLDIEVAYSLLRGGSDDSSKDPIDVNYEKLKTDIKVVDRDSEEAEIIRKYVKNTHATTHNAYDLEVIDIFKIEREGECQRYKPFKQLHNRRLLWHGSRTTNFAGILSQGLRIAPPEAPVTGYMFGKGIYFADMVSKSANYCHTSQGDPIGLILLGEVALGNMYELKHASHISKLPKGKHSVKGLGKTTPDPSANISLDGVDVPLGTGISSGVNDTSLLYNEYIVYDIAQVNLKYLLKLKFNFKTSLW

pEC50 [1] | pEC50 (DLD-1 BRCA2(−/−) cells) | pIC50 (PARP1) | pIC50 (PARP2) | SMILES
9.21 | 8.92 | 8.35 | 6.05 | CCc1cc2ncc([C@@H](C)N3C[C@H](Oc4ccc(C(=O)NC)nc4)[C@H]3C)cc2[nH]c1=O (single isomer, unassigned) [Example 54, 5-{[(2R,3S)-1-[(1R*)-1-(7-ethyl-6-oxo-5H-1,5-naphthyridin-3-yl)ethyl]-2-methylazetidin-3-yl]oxy}-N-methylpyridine-2-carboxamide]
7.92 | 7.42 | 8.19 | < 4.00 | CCc1cc2ncc([C@H](C)N3C[C@H](Oc4ccc(C(=O)NC)nc4)[C@H]3C)cc2[nH]c1=O (single isomer, unassigned) [Example 55, 5-{[(2R,3S)-1-[(1R*)-1-(7-ethyl-6-oxo-5H-1,5-naphthyridin-3-yl)ethyl]-2-methylazetidin-3-yl]oxy}-N-methylpyridine-2-carboxamide]
8.96 | 8.74 | 8.14 | 5.02 | Cc1cc2ncc(CN3C[C@H](Oc4ccc(C(=O)N[C@H]5CC5(F)F)nc4)[C@H]3C)cc2[nH]c1=O (single isomer, unassigned) [Example 89]
8.74 | 8.55 | 8.07 | 5.51 | Cc1cc2ncc(CN3C[C@H](Oc4ccc(C(=O)N[C@@H]5CC5(F)F)nc4)[C@H]3C)cc2[nH]c1=O (single isomer, unassigned) [Example 90]
8.17 | 8.06 | 8.17 | < 4.00 | Cc1cc2ncc(CN3CCC(Oc4ccc(C(=O)NCC(F)F)nc4)C3)cc2[nH]c1=O (stereo in doubt) [Example 10, N-(2,2-difluoroethyl)-5-{[(3R)-1-[(7-methyl-6-oxo-5H-1,5-naphthyridin-3-yl)methyl]pyrrolidin-3-yl]oxy}pyridine-2-carboxamide]
8.35 | 7.89 | 8.19 | < 4.00 | CNC(=O)c1ccc(O[C@@H]2CCN(Cc3cnc4cc(C5CC5)c(=O)[nH]c4c3)C2)cn1 [Example 3, 5-{[(3R)-1-[(7-cyclopropyl-6-oxo-5H-1,5-naphthyridin-3-yl)methyl]pyrrolidin-3-yl]oxy}-N-methylpyridine-2-carboxamide]
8.96 | 8.70 | 8.24 | 4.96 | CCc1cc2ncc(CN3CC[C@@H](Oc4ccc(C(=O)NC5CC5)nc4)C3)cc2[nH]c1=O [Example 4, N-cyclopropyl-5-{[(3R)-1-[(7-ethyl-6-oxo-5H-1,5-naphthyridin-3-yl)methyl]pyrrolidin-3-yl]oxy}pyridine-2-carboxamide]
8.08 | 7.89 | 8.13 | 4.18 | Cc1cc2ncc(CN3CC[C@@H](Oc4ccc(C(=O)NC5CC5)nc4)C3)cc2[nH]c1=O [Example 7, N-cyclopropyl-5-{[(3R)-1-[(7-methyl-6-oxo-5H-1,5-naphthyridin-3-yl)methyl]pyrrolidin-3-yl]oxy}pyridine-2-carboxamide]
8.23 | 7.96 |  |  | CCc1nc2ccc(CN3C[C@H](Oc4ccc(C(=O)NC)nc4F)[C@H]3C)c(F)c2[nH]c1=O [Example 100]
8.51 | 8.27 |  |  | CCc1nc2ccc(CN3C[C@H](Oc4ccc(C(=O)NC5CC5)nc4F)[C@H]3C)c(F)c2[nH]c1=O [Example 101]
6.96 | 7.31 |  |  | CNC(=O)c1ccc(O[C@H]2CN(Cc3cc(F)c4nc(C)c(=O)[nH]c4c3F)[C@@H]2C)cn1 [Example 102]
7.52 | 7.57 |  |  | Cc1nc2ccc(CN3C[C@H](Oc4ccc(C(=O)NC5CC5)nc4F)[C@H]3C)c(F)c2[nH]c1=O [Example 103]
9.07 | 8.72 |  |  | CCc1cc2ncc(CN3C[C@H](Oc4ccc(C(=O)NC5CC5)nc4F)[C@H]3C)cc2[nH]c1=O [Example 104]
9.03 | 8.66 |  |  | C[C@@H]1[C@@H](Oc2ccc(C(=O)NC3CC3)nc2F)CN1Cc1cnc2cc(Cl)c(=O)[nH]c2c1 [Example 105]
8.30 | 8.08 |  |  | CNC(=O)c1ccc(O[C@H]2CN(Cc3ccc4cc(Cl)c(=O)[nH]c4c3F)[C@@H]2C)cn1 [Example 106, 5-{[(2R,3S)-1-[(3-chloro-8-fluoro-2-oxo-1H-quinolin-7-yl)methyl]-2-methylazetidin-3-yl]oxy}-N-methylpyridine-2-carboxamide]
7.77 | 7.52 |  |  | CCc1nc2c(F)cc(CN3C[C@H](Oc4ccc(C(=O)NC)nc4)[C@H]3C)c(F)c2[nH]c1=O [Example 107]
7.92 | 7.92 |  |  | CCc1cc2c(F)cc(CN3C[C@H](Oc4ccc(C(=O)NC)nc4)[C@H]3C)c(F)c2[nH]c1=O [Example 108]
8.03 | 7.85 |  |  | [2H]C([2H])([2H])NC(=O)c1ccc(O[C@H]2CN(Cc3ccc4nc(CC)c(=O)[nH]c4c3F)[C@@H]2C)c(F)n1 [Example 110, 5-{[(2R,3S)-1-[(2-ethyl-5-fluoro-3-oxo-4H-quinoxalin-6-yl)methyl]-2-methylazetidin-3-yl]oxy}-6-fluoro-N-methyl-d3 pyridine-2-carboxamide]
7.89 | 7.82 |  |  | [2H]C([2H])(c1ccc2nc(CC)c(=O)[nH]c2c1F)N1C[C@H](Oc2ccc(C(=O)NC)nc2F)[C@H]1C [Example 111]
8.59 | 8.33 |  |  | [2H]C([2H])(c1ccc2nc(CC)c(=O)[nH]c2c1F)N1C[C@H](Oc2ccc(C(=O)NC3CC3)nc2F)[C@H]1C [Example 112]
8.06 | 7.80 |  |  | CNC(=O)c1ccc(O[C@H]2CN(Cc3ccc4c([nH]c(=O)c5ccnn54)c3F)[C@@H]2C)cn1 [Example 113, 5-{[(2R,3S)-1-({6-fluoro-4-oxo-5H-pyrazolo[1,5-a]quinoxalin-7-yl}methyl)-2-methylazetidin-3-yl]oxy}-N-methylpyridine-2-carboxamide]
8.44 | 8.23 |  |  | Cc1cc2c(=O)[nH]c3c(F)c(CN4C[C@H](Oc5ccc(C(=O)NC6CC6)nc5)[C@H]4C)ccc3n2n1 [Example 114]
6.77 | 6.77 |  |  | CNC(=O)c1ccc(O[C@H]2CN(Cc3ccc4c5c(c(=O)[nH]c4c3F)CCO5)[C@@H]2C)cn1 [Example 115, 5-{[(2R,3S)-1-({6-fluoro-4-oxo-2H,3H,5H-furo[3,2-c]quinolin-7-yl}methyl)-2-methylazetidin-3-yl]oxy}-N-methylpyridine-2-carboxamide]
8.48 | 7.89 |  |  | C[C@@H]1[C@@H](Oc2ccc(C(=O)NC3CC3)nc2)CN1Cc1ccc2c3c(c(=O)[nH]c2c1F)CCO3 [Example 116]
7.89 | 7.89 |  |  | CCc1nc2ccc(CN3CC(Oc4ccc(C(=O)NC5CC5)nc4)C3)c(F)c2[nH]c1=O [Example 117]
7.66 | 7.62 |  |  | CCc1cc2ccc(CN3CC(Oc4ccc(C(=O)NC5CC5)nc4)C3)c(F)c2[nH]c1=O [Example 118]
8.36 | 8.17 |  |  | C[C@@H]1[C@@H](Oc2ccc(C(=O)NCC(F)F)nc2)CN1Cc1ccc2c([nH]c(=O)c3ccnn32)c1F [Example 119]
8.06 | 7.68 |  |  | C[C@@H]1[C@@H](Oc2ccc(C(=O)NCC(F)F)nc2)CN1Cc1ccc2c3c(c(=O)[nH]c2c1F)CCO3 [Example 120]
8.74 | 8.92 |  |  | CNC(=O)c1ccc(O[C@H]2CN(Cc3ccc4c([nH]c(=O)c5c(F)cnn54)c3F)[C@@H]2C)cn1 [Example 121, 5-{[(2R,3S)-1-({3,6-difluoro-4-oxo-5H-pyrazolo[1,5-a]quinoxalin-7-yl}methyl)-2-methylazetidin-3-yl]oxy}-N-methylpyridine-2-carboxamide]

SMILES | pEC50 [1] | pEC50 (DLD-1 BRCA2(−/−) cells) | pIC50 (PARP1) | pIC50 (PARP2)
Cc1cc2ncc([C@@H](C)N3C[C@H](Oc4ccc(C#N)nc4)[C@H]3C)cc2[nH]c1=O (single isomer, unassigned) [Example 60] | < 6.00 | < 6.00 | < 7.00 | < 4.00
Cc1cc2ncc([C@H](C)N3C[C@H](Oc4ccc(C#N)nc4)[C@H]3C)cc2[nH]c1=O (single isomer, unassigned) [Example 61] | 8.06 | 8.00 | 7.74 | 4.64
